Patent publication US10882882B2, “Post fermented tea-derived kaempferol-based compound” (AMOREPACIFIC CORPORATION, priority 2016, dated 2021)

Assays:
[1] = target: T1, beta amyloid (Aβ1-42) (Homo sapiens, UniProt P05067); assay: Inhibition of beta amyloid aggregation, fluorescence analysis (ThioflavinT assay); type: biochemical
T1 construct: beta amyloid (Aβ1-42, AnaSpec Inc, USA); purchased AnaSpec Inc, USA
Experimental: The effect of kaempferol3-O-[2-O″-(E)-p-coumaroyl][beta-D-glucopyranosyl-(1→3)-O-alpha-L-rhamnopyranosyl-(1→6)-O-beta-D-glucopyranoside] on inhibition of beta amyloid aggregation was confirmed by the fluorescence analysis (ThioflavinT assay). Specifically, beta amyloid (Aβ1-42, AnaSpec Inc, USA) was obtained and used at a concentration of 0.1 mg/ml and stored at −80° C. before use. Morin (20 μM), phenol red (20 μM), and kaempferol3-O-[2-O″-(E)-p-coumaroyl][beta-D-glucopyranosyl-(1→3)-O-alpha-L-rhamnopyranosyl-(1→6)-O-beta-D-glucopyranoside] (1 mg/ml) were respectively diluted with DMSO so as to be adjusted to the concentrations. In order to specify the degree of inhibition of Aβ1-42 aggregation, each of the compounds prepared at the above concentrations was diluted with 50 μL of 0.01 M sodium phosphate buffer solution to have a concentration of 10 μM, then 40 μL of 0.1 mg/ml of Aβ1-42 was added thereto, and then 10 μl of 2 mM thioflavinT was added thereto, and fluorescence was measured using a fluorescence spectrometer (RF-5300PC, SHIMADZU CORPORATION, Japan) at 37° C. for 150 minutes at intervals of 5 minutes. In the above table, “RFU” denotes the relative fluorescence unit, and “Increased RFU” denotes the amount of aggregated beta amyloid, and “Increased RFU (% of Pos.Cont.)” denotes the percentage value of the amount of aggregated beta amyloid with respect to that of the positive control group. “Novel substance 33” denotes kaempferol3-O-[2-O″-(E)-p-coumaroyl][beta-D-glucopyranosyl-(1→3)-O-alpha-L-rhamnopyranosyl-(1→6)-O-beta-D-glucopyranoside].

[2] = system: healthy adult subjects; assay: Human repeated insult patch test (HRIPT), cumulative skin irritation; type: in vivo; details: for Number of subjects showed ± reactivity, 1st time / Number of subjects showed + reactivity, 1st time / Number of subjects showed ++ reactivity, 1st time: 1st patch; for Number of subjects showed ± reactivity, 1st time / Number of subjects showed ± reactivity, 2nd time / Number of subjects showed ± reactivity, 3rd time / Number of subjects showed ± reactivity, 4th time / Number of subjects showed ± reactivity, 5th time / Number of subjects showed ± reactivity, 6th time / Number of subjects showed ± reactivity, 7th time / Number of subjects showed ± reactivity, 8th time / Number of subjects showed ± reactivity, 9th time: 1st of 3 lines (±); for Number of subjects showed + reactivity, 1st time / Number of subjects showed + reactivity, 2nd time / Number of subjects showed + reactivity, 3rd time / Number of subjects showed + reactivity, 4th time / Number of subjects showed + reactivity, 5th time / Number of subjects showed + reactivity, 6th time / Number of subjects showed + reactivity, 7th time / Number of subjects showed + reactivity, 8th time / Number of subjects showed + reactivity, 9th time: 2nd of 3 lines (+); for Number of subjects showed ++ reactivity, 1st time / Number of subjects showed ++ reactivity, 2nd time / Number of subjects showed ++ reactivity, 3rd time / Number of subjects showed ++ reactivity, 4th time / Number of subjects showed ++ reactivity, 5th time / Number of subjects showed ++ reactivity, 6th time / Number of subjects showed ++ reactivity, 7th time / Number of subjects showed ++ reactivity, 8th time / Number of subjects showed ++ reactivity, 9th time: 3rd of 3 lines (++); for Number of subjects showed ± reactivity, 2nd time / Number of subjects showed + reactivity, 2nd time / Number of subjects showed ++ reactivity, 2nd time: 2nd patch; for Number of subjects showed ± reactivity, 3rd time / Number of subjects showed + reactivity, 3rd time / Number of subjects showed ++ reactivity, 3rd time: 3rd patch; for Number of subjects showed ± reactivity, 4th time / Number of subjects showed + reactivity, 4th time / Number of subjects showed ++ reactivity, 4th time: 4th patch; for Number of subjects showed ± reactivity, 5th time / Number of subjects showed + reactivity, 5th time / Number of subjects showed ++ reactivity, 5th time: 5th patch; for Number of subjects showed ± reactivity, 6th time / Number of subjects showed + reactivity, 6th time / Number of subjects showed ++ reactivity, 6th time: 6th patch; for Number of subjects showed ± reactivity, 7th time / Number of subjects showed + reactivity, 7th time / Number of subjects showed ++ reactivity, 7th time: 7th patch; for Number of subjects showed ± reactivity, 8th time / Number of subjects showed + reactivity, 8th time / Number of subjects showed ++ reactivity, 8th time: 8th patch; for Average reactivity: 9 patches over three weeks, safe when less than 3; for Number of subjects showed ± reactivity, 9th time / Number of subjects showed + reactivity, 9th time / Number of subjects showed ++ reactivity, 9th time: 9th patch
Experimental: Human repeated insult patch tests (HRIPT) were conducted to determine the cumulative skin irritation by kaempferol3-O-[2-O″-(E)-p-coumaroyl][beta-D-glucopyranosyl-(1→3)-O-alpha-L-rhamnopyranosyl-(1→6)-O-beta-D-glucopyranoside] and to calculate the concentration range in which kaempferol3-O-[2-O″-(E)-p-coumaroyl][beta-D-glucopyranosyl-(1→3)-O-alpha-L-rhamnopyranosyl-(1→6)-O-beta-D-glucopyranoside] can be used on the skin.
Specifically, 15 healthy adult subjects were randomly selected, the test compositions (compositions for skin containing an emulsifier, a stabilizer, purified water, and the like in addition to the compound) containing the compound at 0.5 wt %, 1 wt %, and 3 wt % were dropped by 20 μl per chamber (IQ chamber, Epitest Ltd, Finland), and the patch was applied to the right side of the upper back of the subject and then replaced with new one after 24 hours. The skin reaction was examined before and after the patch test while the patch test was conducted three times a week and thus nine times for three weeks in total in this manner, the skin reaction was observed until the 48th hour after removal of the final patch, and the average reactivity was determined.
The skin reaction was judged according to the criteria of the International Contact Dermatitis Research Group (ICDRG). In the above table, “Novel substance 33” denotes kaempferol3-O-[2-O″-(E)-p-coumaroyl][beta-D-glucopyranosyl-(1→3)-O-alpha-L-rhamnopyranosyl-(1→6)-O-beta-D-glucopyranoside].

T1 sequence (P05067 672-713 limits assumed): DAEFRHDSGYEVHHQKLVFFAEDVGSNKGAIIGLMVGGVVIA

Increased RFU (% of Pos. Cont.) ([1]; compound 10 μM, Aβ1-42 0.1 mg/ml, 37° C., 150 minutes, Pos. Cont. (beta amyloid only) = 100): 77.0%
Increased RFU (amount of aggregated beta amyloid) ([1]; compound 10 μM, Aβ1-42 0.1 mg/ml, thioflavinT, 37° C., 150 minutes): 11235 RFU
inhibition of beta amyloid aggregation as compared with the positive control group ([1]; positive control (only beta amyloid, no compound) taken as 100%): 23.0%
Compound: CC1OC(OCC2OC(Oc3c(-c4ccc(O)cc4)oc4cc(O)cc(O)c4c3=O)C(OC(=O)/C=C/c3ccc(O)cc3)C(O)C2O)C(O)C(OC2OC(CO)C(O)C(O)C2O)C1O [Novel substance 33, kaempferol3-O-[2-O″-(E)-p-coumaroyl][beta-D-glucopyranosyl-(1→3)-O-alpha-L-rhamnopyranosyl-(1→6)-O-beta-D-glucopyranoside]]
Number of subjects showed ± reactivity, 1st time ([2]; 0.5 wt %): 0 persons
Number of subjects showed + reactivity, 1st time ([2]; 0.5 wt %): 0 persons
Number of subjects showed ++ reactivity, 1st time ([2]; 0.5 wt %): 0 persons
Number of subjects showed ± reactivity, 2nd time ([2]; 0.5 wt %): 0 persons
Number of subjects showed + reactivity, 2nd time ([2]; 0.5 wt %): 0 persons
Number of subjects showed ++ reactivity, 2nd time ([2]; 0.5 wt %): 0 persons
Number of subjects showed ± reactivity, 3rd time ([2]; 0.5 wt %): 0 persons
Number of subjects showed + reactivity, 3rd time ([2]; 0.5 wt %): 0 persons
Number of subjects showed ++ reactivity, 3rd time ([2]; 0.5 wt %): 0 persons
Number of subjects showed ± reactivity, 4th time ([2]; 0.5 wt %): 0 persons
Number of subjects showed + reactivity, 4th time ([2]; 0.5 wt %): 0 persons
Number of subjects showed ++ reactivity, 4th time ([2]; 0.5 wt %): 0 persons
Number of subjects showed ± reactivity, 5th time ([2]; 0.5 wt %): 0 persons
Number of subjects showed + reactivity, 5th time ([2]; 0.5 wt %): 0 persons
Number of subjects showed ++ reactivity, 5th time ([2]; 0.5 wt %): 0 persons
Number of subjects showed ± reactivity, 6th time ([2]; 0.5 wt %): 0 persons
Number of subjects showed + reactivity, 6th time ([2]; 0.5 wt %): 0 persons
Number of subjects showed ++ reactivity, 6th time ([2]; 0.5 wt %): 0 persons
Number of subjects showed ± reactivity, 7th time ([2]; 0.5 wt %): 0 persons
Number of subjects showed + reactivity, 7th time ([2]; 0.5 wt %): 0 persons
Number of subjects showed ++ reactivity, 7th time ([2]; 0.5 wt %): 0 persons
Number of subjects showed ± reactivity, 8th time ([2]; 0.5 wt %): 0 persons
Number of subjects showed + reactivity, 8th time ([2]; 0.5 wt %): 0 persons
Number of subjects showed ++ reactivity, 8th time ([2]; 0.5 wt %): 0 persons
Average reactivity ([2]; 0.5 wt %): 0
Number of subjects showed ± reactivity, 9th time ([2]; 0.5 wt %): 0 persons
Number of subjects showed + reactivity, 9th time ([2]; 0.5 wt %): 0 persons
Number of subjects showed ++ reactivity, 9th time ([2]; 0.5 wt %): 0 persons
Number of subjects showed ± reactivity, 1st time ([2]; 1 wt %): 0 persons
Number of subjects showed + reactivity, 1st time ([2]; 1 wt %): 0 persons
Number of subjects showed ++ reactivity, 1st time ([2]; 1 wt %): 0 persons
Number of subjects showed ± reactivity, 2nd time ([2]; 1 wt %): 0 persons
Number of subjects showed + reactivity, 2nd time ([2]; 1 wt %): 0 persons
Number of subjects showed ++ reactivity, 2nd time ([2]; 1 wt %): 0 persons
Number of subjects showed ± reactivity, 3rd time ([2]; 1 wt %): 0 persons
Number of subjects showed + reactivity, 3rd time ([2]; 1 wt %): 0 persons
Number of subjects showed ++ reactivity, 3rd time ([2]; 1 wt %): 0 persons
Number of subjects showed ± reactivity, 4th time ([2]; 1 wt %): 0 persons
Number of subjects showed + reactivity, 4th time ([2]; 1 wt %): 0 persons
Number of subjects showed ++ reactivity, 4th time ([2]; 1 wt %): 0 persons
Number of subjects showed ± reactivity, 5th time ([2]; 1 wt %): 0 persons
Number of subjects showed + reactivity, 5th time ([2]; 1 wt %): 0 persons
Number of subjects showed ++ reactivity, 5th time ([2]; 1 wt %): 0 persons
Number of subjects showed ± reactivity, 6th time ([2]; 1 wt %): 0 persons
Number of subjects showed + reactivity, 6th time ([2]; 1 wt %): 0 persons
Number of subjects showed ++ reactivity, 6th time ([2]; 1 wt %): 0 persons
Number of subjects showed ± reactivity, 7th time ([2]; 1 wt %): 0 persons
Number of subjects showed + reactivity, 7th time ([2]; 1 wt %): 0 persons
Number of subjects showed ++ reactivity, 7th time ([2]; 1 wt %): 0 persons
Number of subjects showed ± reactivity, 8th time ([2]; 1 wt %): 0 persons
Number of subjects showed + reactivity, 8th time ([2]; 1 wt %): 0 persons
Number of subjects showed ++ reactivity, 8th time ([2]; 1 wt %): 0 persons
Average reactivity ([2]; 1 wt %): 0
Number of subjects showed ± reactivity, 9th time ([2]; 1 wt %): 0 persons
Number of subjects showed + reactivity, 9th time ([2]; 1 wt %): 0 persons
Number of subjects showed ++ reactivity, 9th time ([2]; 1 wt %): 0 persons
Number of subjects showed ± reactivity, 1st time ([2]; 3 wt %): 0 persons
Number of subjects showed + reactivity, 1st time ([2]; 3 wt %): 0 persons
Number of subjects showed ++ reactivity, 1st time ([2]; 3 wt %): 0 persons
Number of subjects showed ± reactivity, 2nd time ([2]; 3 wt %): 0 persons
Number of subjects showed + reactivity, 2nd time ([2]; 3 wt %): 0 persons
Number of subjects showed ++ reactivity, 2nd time ([2]; 3 wt %): 0 persons
Number of subjects showed ± reactivity, 3rd time ([2]; 3 wt %): 0 persons
Number of subjects showed + reactivity, 3rd time ([2]; 3 wt %): 0 persons
Number of subjects showed ++ reactivity, 3rd time ([2]; 3 wt %): 0 persons
Number of subjects showed ± reactivity, 4th time ([2]; 3 wt %): 0 persons
Number of subjects showed + reactivity, 4th time ([2]; 3 wt %): 0 persons
Number of subjects showed ++ reactivity, 4th time ([2]; 3 wt %): 0 persons
Number of subjects showed ± reactivity, 5th time ([2]; 3 wt %): 0 persons
Number of subjects showed + reactivity, 5th time ([2]; 3 wt %): 0 persons
Number of subjects showed ++ reactivity, 5th time ([2]; 3 wt %): 0 persons
Number of subjects showed ± reactivity, 6th time ([2]; 3 wt %): 0 persons
Number of subjects showed + reactivity, 6th time ([2]; 3 wt %): 0 persons
Number of subjects showed ++ reactivity, 6th time ([2]; 3 wt %): 0 persons
Number of subjects showed ± reactivity, 7th time ([2]; 3 wt %): 0 persons
Number of subjects showed + reactivity, 7th time ([2]; 3 wt %): 0 persons
Number of subjects showed ++ reactivity, 7th time ([2]; 3 wt %): 0 persons
Number of subjects showed ± reactivity, 8th time ([2]; 3 wt %): 0 persons
Number of subjects showed + reactivity, 8th time ([2]; 3 wt %): 0 persons
Number of subjects showed ++ reactivity, 8th time ([2]; 3 wt %): 0 persons
Average reactivity ([2]; 3 wt %): 0
Number of subjects showed ± reactivity, 9th time ([2]; 3 wt %): 0 persons
Number of subjects showed + reactivity, 9th time ([2]; 3 wt %): 0 persons
Number of subjects showed ++ reactivity, 9th time ([2]; 3 wt %): 0 persons
cumulative skin irritation ([2]; HRIPT, 0.5 to 3 wt %): without cumulative skin irritation
